Tests used:
Type in all cases: biochemical
[1] = test system: hydrolases SEQ ID NO: 1-41; assay: Analysis of substrate spectrum of hydrolases (TLC, HPLC-MS, GC-MS); also: key: '+'- active; ' –' inactive towards derivative
Procedure: A hydrolytic activity of enzymes was analysed by thin-layer chromatography (TLC), high-performance liquid chromatography and a mass spectrometry (HPLC-MS) and Gas chromatography and a mass spectrometry (GC-MS) methods. Nucleosides, as substrates and hydrolysis reaction products, were tested by thin-layer chromatography (TLC) method and by a high-performance liquid chromatography - mass spectroscopy (HPLC-MS) method. Other reaction products were detected by Gas chromatography-Mass spectrometry (GC-MS) system. […] The conditions of the reactions are given below.
Hydrolysis products test by thin-layer chromatography (TLC) method. A hydrolytic activity was assayed in reaction mixture containing 45 mM potassium phosphate buffer, pH 7.5, 1 µl enzyme (0.1-4.6 µg/reaction) and 4 mM substrate. The total reaction mix volume was 20 µl. Reaction mixture were incubated at 30 °C temperature up to 3 h and at RT overnight. Thin-layer chromatography (TLC) was conducted on the Merck silica gel 60 F254 plates, using the chloroform and methanol (5:1) mixture of solvents.
High-performance liquid chromatography/mass spectrometry (HPLC-MS) analysis of hydrolysis reaction products. […] Mass scans were measured from m/z 10 up to m/z 500, at 350 °C interface temperature, 250 °C DL temperature, ±4,500 V interface voltage, neutral DL/Qarray, using N 2 as nebulizing and drying gas. Mass spectrometry data was acquired in both the positive and negative ionization mode. The data was analysed using the LabSolutions LCMS software. For HPLC-MS analysis, the reaction mixture consisted of 45 mM potassium phosphate buffer (pH 7.5), 2 mM substrate (from 50-100 mM stock in DMSO), and protein (-0.5-1 mg/ ml). Reaction mixture was incubated at 30 °C temperature up to 3 h and at RT overnight.
Gas chromatography-Mass spectrometry (GC-MS) analysis of hydrolysis reaction products. GC-MS analyses were performed with a Shimadzu GCMS-QP2010 Ultra Plus (Kyoto, Japan). […] Temperature program -50°C (1 min), 50°C →250 °C (25 °C/min), total run time - 15 min. The temperatures of injector, interface and ion source were 250°C.
For GC-MS analysis, the reaction mixture consisted of 45 mM potassium phosphate buffer (pH 7.5), 2.4 mM substrate (from 50-100 mM stock in DMSO), and protein (-0.5-1 mg/ ml). The total reaction mix volume was 1000 µl. The hydrolysis reaction products were extracted with ethyl acetate (3x 400 µl).

[2] = target: hydrolase Seq ID No: 1 (metagenomic, wild-type hydrolase) (uncultured bacterium, UniProt A0ACD6BAS6); assay: Spectrophotometric assay of hydrolytic activity (kinetic parameters); settings: potassium phosphate buffer, pH 7.5, 22 °C
Procedure: (§1) For the spectrophotometric assay, the reaction was started by adding an appropriate amount of protein to potassium phosphate buffer, pH 7.5 supplemented with 0.3, 0.15, 0.1, 0.075, 0.05, 0.0375, 0.025, 0.0125 mM N^4-benzoyl-2'-deoxycytidine, or 1, 0.8, 0.5, 0.4, 0.25, 0.2, 0.1, 0.05 mM 2'-deoxycytidine. Then, decreases in absorbance at either 310 for N^4-benzoyl-2'-deoxycytidine or 290 nm for 2'-deoxycytidine were recorded at 22 °C. Kinetic parameters (Table x) were calculated using Imfit-py 1.0.2 software fitting the experimental data to a simple Michaelis-Menten kinetics scheme. Table 5. Kinetic parameters of hydrolases. Substrate: BzdC - N4-benzoyl-2'-deoxycytidine; dC-2'-deoxycytidine.

[3] = test system: hydrolase Seq ID No: 3 (metagenomic hydrolase); assay: as above; settings: potassium phosphate buffer, pH 7.5, 22 °C
Procedure: as §1

[4] = target: hydrolase variant Seq ID No: 15 (site-directed mutant) (uncultured bacterium, UniProt A0ACD6BAS6); assay: as above; settings: potassium phosphate buffer, pH 7.5, 22 °C, 310 nm (BzdC) or 290 nm (dC)
From the text: (§2) Mutations in the hydrolase's genes were introduced using methodology based on "Phusion™ Site-Directed Mutagenesis Kit" (Thermo Fisher Scientific). For specific mutagenesis, primer pairs meant to amplify the whole plasmid with the target protein gene, where one primer has miss-matched base pairs in the middle, were created (Fw/Rv): […]/[…] (SEQ ID NO:10); [formula] [formula] […]/[…] (SEQ ID NO:13); [formula] [formula] […]/[…] and […]/[…] (SEQ ID NO: 16, SEQ ID NO: 17, SEQ ID NO: 18); [formula] […]/[…] (SEQ ID NO: 21); [formula] […]/[…] (SEQ ID NO: 23); […]/[…] (SEQ ID NO: 24).
as §1

[5] = target: hydrolase variant Seq ID No:13 (site-directed mutant) (uncultured bacterium, UniProt A0ACD6BAS6, form not given/G85I); assay: as above; settings: potassium phosphate buffer, pH 7.5, 22 °C, 310 nm (BzdC) or 290 nm (dC)
From the text: as §2, §1

[6] = 310 nm (BzdC) or 290 nm (dC), unit not given
[7] = absorbance decrease at 310 nm (BzdC) or 290 nm (dC), Michaelis-Menten fit

Sequence of hydrolase Seq ID No: 1 (metagenomic, wild-type hydrolase) (A0ACD6BAS6 entry or part of it): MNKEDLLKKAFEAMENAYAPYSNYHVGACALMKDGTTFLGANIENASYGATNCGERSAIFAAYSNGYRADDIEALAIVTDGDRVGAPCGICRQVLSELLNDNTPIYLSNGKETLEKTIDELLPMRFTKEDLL
Sequence of hydrolase variant Seq ID No: 15 (site-directed mutant) (A0ACD6BAS6 entry or part of it, change not shown): as the sequence (A0ACD6BAS6 entry or part of it) above
Sequence of hydrolase variant Seq ID No:13 (site-directed mutant) (A0ACD6BAS6 entry or part of it G85I, form open): as the sequence (A0ACD6BAS6 entry or part of it) above

Row | SMILES | Hydrolysis of S^4-alkyl uridine derivatives ([1]; enzyme SEQ ID No:1) | Hydrolysis of S^4-alkyl uridine derivatives ([1]; enzyme SEQ ID No:3) | Hydrolysis of S^4-alkyl uridine derivatives ([1]; enzyme SEQ ID No:4) | Hydrolysis of S^4-alkyl uridine derivatives ([1]; enzyme SEQ ID No:2) | Hydrolysis of S^4-alkyl uridine derivatives ([1]; enzyme SEQ ID No:6) | Hydrolysis of S^4-alkyl uridine derivatives ([1]; enzyme SEQ ID No:9) | Hydrolysis of S^4-alkyl uridine derivatives ([1]; enzyme SEQ ID No:25) | Hydrolysis of S^4-alkyl uridine derivatives ([1]; enzyme SEQ ID No:27) | Hydrolysis of S^4-alkyl uridine derivatives ([1]; enzyme SEQ ID No:28) | Hydrolysis of S^4-alkyl uridine derivatives ([1]; enzyme SEQ ID No:30) | Hydrolysis of S^4-alkyl uridine derivatives ([1]; enzyme SEQ ID No:32) | Hydrolysis of S^4-alkyl uridine derivatives ([1]; enzyme SEQ ID No:34) | Hydrolysis of S^4-alkyl uridine derivatives ([1]; enzyme SEQ ID No:35) | Hydrolysis of S^4-alkyl uridine derivatives ([1]; enzyme SEQ ID No:36) | Hydrolysis of S^4-alkyl uridine derivatives ([1]; enzyme SEQ ID No:37) | Hydrolysis of S^4-alkyl uridine derivatives ([1]; enzyme SEQ ID No:38) | other results
1 | CC(C)CSc1ccn([C@@H]2O[C@H](CO)[C@@H](O)[C@H]2O)c(=O)n1 [4-S-iso-butyl-U] | + | + | + |  |  |  |  |  |  |  |  |  |  |  |  |  | 
2 | CSc1nc(=O)n([C@@H]2O[C@H](CO)[C@@H](O)[C@H]2O)cc1F [5-F-4-S-methyl-U] | + | + | + | + | + | + | + | + | + | + | + | + | + | + | + | + | Hydrolysis of S^4-alkyl uridine derivatives ([1]; enzyme SEQ ID No:26): +; Hydrolysis of S^4-alkyl uridine derivatives ([1]; enzyme SEQ ID No:29): +; Hydrolysis of S^4-alkyl uridine derivatives ([1]; enzyme SEQ ID No:33): +
3 | O=c1nc(SCc2ccccc2)c(F)cn1[C@@H]1O[C@H](CO)[C@@H](O)[C@H]1O [5-F-4-S-benzyl-U] | + | + | + | + |  | + | + |  |  | + |  | + | + |  |  |  | 
4 | CCCSc1ccn([C@@H]2O[C@H](CO)[C@@H](O)[C@H]2O)c(=O)n1 [4-S-n-propyl-U] | + | + | + |  |  |  |  |  |  |  |  |  |  |  |  |  | 
5 | O=c1nc(SCc2ccccc2)ccn1[C@@H]1O[C@H](CO)[C@@H](O)[C@H]1O [4-S-benzyl-U] | + | + | + | + |  | + | + |  | + | + |  | + | + |  |  | + | Hydrolysis of S^4-alkyl uridine derivatives ([1]; enzyme SEQ ID No:10): +; Hydrolysis of S^4-alkyl uridine derivatives ([1]; enzyme SEQ ID No:13): +; Hydrolysis of S^4-alkyl uridine derivatives ([1]; enzyme SEQ ID No:14): +; Hydrolysis of S^4-alkyl uridine derivatives ([1]; enzyme SEQ ID No:21): +; Hydrolysis of S^4-alkyl uridine derivatives ([1]; enzyme SEQ ID No:39): +; Hydrolysis of S^4-alkyl uridine derivatives ([1]; enzyme SEQ ID No:41): +
6 | CC(C)Sc1ccn([C@@H]2O[C@H](CO)[C@@H](O)[C@H]2O)c(=O)n1 [4-S-iso-propyl-U] | + | + | + |  |  |  |  |  |  |  |  |  |  |  |  |  | 
7 | CCSc1nc(=O)n([C@@H]2O[C@H](CO)[C@@H](O)[C@H]2O)cc1F [5-F-4-S-ethyl-U] | + | + | + | + | + | + | + | + | + | + | + | + | + | + | + | + | 
8 | Nc1ccn([C@H]2C[C@H](O)[C@@H](CO)O2)c(=O)n1 [dC, 2'-deoxycytidine] |  |  |  |  |  |  |  |  |  |  |  |  |  |  |  |  | kcat ([2]; 310 nm (BzdC) or 290 nm (dC)): (24.4 ± 1.71) × 10 ^-1 s^-1; Vmax [2, 6]: (2.67 ± 0.19) × 10^-4; Km [2, 7]: 195 µM; kcat ([3]; 310 nm (BzdC) or 290 nm (dC)): (2.09 +/- 0.09) ×10^-1 s^-1; Vmax [3, 6]: (1.20 ± 0.05) × 10^-4; Km [3, 7]: 182 µM; kcat [4]: (2.58 ± 0.09) × 10^-2 s^-1; Vmax ([4]; unit not given): (6.70 ± 0.24) × 10^-5; kcat [5]: (6.87 ± 0.80) × 10 ^-1 s^-1; Vmax ([5]; unit not given): (4.35 ± 0.51) × 10^-4
9 | O=c1nc(Sc2ccccc2)c(F)cn1[C@@H]1O[C@H](CO)[C@@H](O)[C@H]1O [5F-4-S-phenyl-U] | + |  | + |  |  |  |  |  |  |  |  |  | + |  |  | + | 
10 | CCSc1ccn([C@@H]2O[C@H](CO)[C@@H](O)[C@H]2O)c(=O)n1 [4-S-ethyl-U] | + | + | + | + | + | + | + | + | + | + | + | + | + | + | + | + | Hydrolysis of S^4-alkyl uridine derivatives ([1]; enzyme SEQ ID No:21): +; Hydrolysis of S^4-alkyl uridine derivatives ([1]; enzyme SEQ ID No:26): +; Hydrolysis of S^4-alkyl uridine derivatives ([1]; enzyme SEQ ID No:29): +; Hydrolysis of S^4-alkyl uridine derivatives ([1]; enzyme SEQ ID No:31): +; Hydrolysis of S^4-alkyl uridine derivatives ([1]; enzyme SEQ ID No:33): +; Hydrolysis of S^4-alkyl uridine derivatives ([1]; enzyme SEQ ID No:39): +; Hydrolysis of S^4-alkyl uridine derivatives ([1]; enzyme SEQ ID No:40): +; Hydrolysis of S^4-alkyl uridine derivatives ([1]; enzyme SEQ ID No:41): +
